For orientation: IC50 means the concentration that gives 50% inhibition. A low value points to inhibition by little substance. The term inhibition denotes the change of the read-out against control, counted positive when it falls. The Papp is a coefficient for how fast a substance crosses the barrier. By half-life is commonly meant how long it takes for the measured level to halve. A high value points to slow decline. In general, Tmax refers to the time at which the peak concentration occurs. For orientation: AUC(0-t) means the area under the concentration-time curve up to a stated or last time point. Usually Cmax stands for the highest concentration seen after dosing.

From ChEMBL document CHEMBL1649421, “New drug-like hydroxyphenylnaphthol steroidomimetics as potent and selective 17β-hydroxysteroid dehydrogenase type 1 inhibitors for the treatment of estrogen-dependent diseases” (J Med Chem, 2011) come the findings set out here.

Series [1] deals with T1, 17-beta-hydroxysteroid dehydrogenase type 1 (Homo sapiens, UniProt P14061).
T1 sequence (P14061 whole entry): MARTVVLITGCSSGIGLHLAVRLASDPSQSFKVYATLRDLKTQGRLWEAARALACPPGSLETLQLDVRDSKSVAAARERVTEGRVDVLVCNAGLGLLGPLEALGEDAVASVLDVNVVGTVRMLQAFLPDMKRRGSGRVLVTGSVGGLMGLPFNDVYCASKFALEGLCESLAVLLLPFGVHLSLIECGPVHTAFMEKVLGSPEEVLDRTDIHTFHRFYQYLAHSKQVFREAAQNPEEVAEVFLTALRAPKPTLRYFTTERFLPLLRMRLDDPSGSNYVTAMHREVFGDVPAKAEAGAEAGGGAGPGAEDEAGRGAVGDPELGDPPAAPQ
Put plainly: Displacement of [3H]E1 from human placental 17beta-HSD1 after 10 mins by fluid scintillation counting. In general terms: Loss of bound radioactivity is the signal in a displacement assay; it reports binding, not function.

The species entered for a further series is Homo sapiens. The experiment in a line: Selectivity ratio of IC50 for human placental 17beta-HSD2 to IC50 for human placental 17beta-HSD1.
For series [2], the target named is T2, 17-beta-hydroxysteroid dehydrogenase type 2 (Homo sapiens) (UniProt P37059).
T2 sequence (whole entry): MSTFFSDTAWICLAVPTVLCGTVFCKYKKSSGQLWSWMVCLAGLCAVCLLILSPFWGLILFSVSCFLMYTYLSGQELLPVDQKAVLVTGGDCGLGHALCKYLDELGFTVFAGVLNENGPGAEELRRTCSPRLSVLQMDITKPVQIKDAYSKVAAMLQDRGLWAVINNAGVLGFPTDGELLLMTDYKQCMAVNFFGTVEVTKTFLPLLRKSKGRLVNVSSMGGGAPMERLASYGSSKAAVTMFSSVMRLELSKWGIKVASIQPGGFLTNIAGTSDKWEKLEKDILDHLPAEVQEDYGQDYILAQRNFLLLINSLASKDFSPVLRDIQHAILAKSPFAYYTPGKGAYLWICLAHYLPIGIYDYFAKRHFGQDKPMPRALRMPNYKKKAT
Put plainly: Inhibition of [3H]E2 binding to human recombinant 17beta-HSD2 expressed in baculovirus-infected Sf9 cells at 100 nM after 10 mins by fluid scintillation counting.

For series [3], the target named is T3, Estrogen receptor (Homo sapiens) (UniProt P03372).
T3 sequence (whole entry): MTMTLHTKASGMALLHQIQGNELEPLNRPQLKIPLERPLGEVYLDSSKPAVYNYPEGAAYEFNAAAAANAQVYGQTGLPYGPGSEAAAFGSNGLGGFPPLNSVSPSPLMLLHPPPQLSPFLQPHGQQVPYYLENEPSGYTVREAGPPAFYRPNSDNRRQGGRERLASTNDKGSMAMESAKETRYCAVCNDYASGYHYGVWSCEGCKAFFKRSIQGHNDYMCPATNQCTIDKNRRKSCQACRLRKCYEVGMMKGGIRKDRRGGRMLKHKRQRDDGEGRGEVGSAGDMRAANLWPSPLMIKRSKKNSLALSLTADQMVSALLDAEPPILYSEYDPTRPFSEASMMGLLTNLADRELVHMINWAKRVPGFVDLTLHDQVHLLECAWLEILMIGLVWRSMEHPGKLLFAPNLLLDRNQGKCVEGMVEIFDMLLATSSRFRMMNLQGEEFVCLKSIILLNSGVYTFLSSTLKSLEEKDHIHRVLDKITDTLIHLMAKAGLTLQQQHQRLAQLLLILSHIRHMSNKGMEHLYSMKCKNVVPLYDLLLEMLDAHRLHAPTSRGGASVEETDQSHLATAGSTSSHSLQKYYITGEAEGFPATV
The experiment in a line: Displacement of [3H]E2 from human recombinant ERalpha by liquid scintillation counting relative to estradiol.

For series [4], the target named is T2, 17-beta-hydroxysteroid dehydrogenase type 2 (Homo sapiens). Put plainly: Inhibition of [3H]E2 binding to human recombinant 17beta-HSD2 expressed in baculovirus-infected Sf9 cells at 1 uM after 10 mins by fluid scintillation counting.
In series [5] the target is T1, 17-beta-hydroxysteroid dehydrogenase type 1. The experiment in a line: Displacement of [3H]E1 from 17beta-HSD1 in human T47D cells after 10 mins by fluid scintillation counting. It is filed as cell-based.
For series [6], the target named is Estrogen receptor beta (Homo sapiens) (UniProt Q92731). The experiment in a line: Displacement of [3H]E2 from human recombinant ERbeta by liquid scintillation counting relative to estradiol.
For series [7], the target named is T4, 17-beta-hydroxysteroid dehydrogenase type 1 (Homo sapiens) (UniProt P14061).
T4 sequence (whole entry): T1 sequence (P14061 whole entry)
The experiment in a line: Inhibition of [3H]E1 binding to human recombinant 17beta-HSD1 expressed in baculovirus-infected Sf9 cells at 100 nM after 10 mins by fluid scintillation counting.

For series [8], the target named is T4, 17-beta-hydroxysteroid dehydrogenase type 1 (Homo sapiens). Put plainly: Inhibition of [3H]E1 binding to human recombinant 17beta-HSD1 expressed in baculovirus-infected Sf9 cells at 1 uM after 10 mins by fluid scintillation counting.
Series [9] is described as follows: Apparent permeability across human Caco2 cells after 180 mins by LC-MS/MS analysis. It is filed as ADME, cell-based. The conditions noted are these: Caco-2.
In series [10] the test system is Liver microsomes. Put plainly: Metabolic stability in human liver microsomes up to 45 mins by LC-MS/MS analysis. The conditions noted are these: 0.75 h. The format is ADME, Microsome. On the technique in general: Liver microsomes are vesicles of endoplasmic reticulum, rich in cytochrome P450 enzymes.
The target in another series is T5, Cytochrome P450 2B6 (Homo sapiens, UniProt P20813).
T5 sequence (P20813 whole entry): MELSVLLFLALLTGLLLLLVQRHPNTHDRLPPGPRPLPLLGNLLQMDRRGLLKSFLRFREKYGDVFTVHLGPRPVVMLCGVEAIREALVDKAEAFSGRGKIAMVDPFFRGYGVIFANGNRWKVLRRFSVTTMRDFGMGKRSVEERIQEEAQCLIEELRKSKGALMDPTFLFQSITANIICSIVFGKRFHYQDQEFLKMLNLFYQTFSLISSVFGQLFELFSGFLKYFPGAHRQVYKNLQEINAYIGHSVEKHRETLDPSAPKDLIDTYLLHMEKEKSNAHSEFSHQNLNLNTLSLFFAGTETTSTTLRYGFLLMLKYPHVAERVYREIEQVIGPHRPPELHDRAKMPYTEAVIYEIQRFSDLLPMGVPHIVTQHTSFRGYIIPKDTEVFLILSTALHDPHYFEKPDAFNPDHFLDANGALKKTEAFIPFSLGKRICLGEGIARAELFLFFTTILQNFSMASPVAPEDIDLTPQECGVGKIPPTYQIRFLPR
Put plainly: Inhibition of human CYP2B6. It is filed as ADME.

The target in the next series is Cytochrome P450 2C19 (Homo sapiens, UniProt P33261). Put plainly: Inhibition of human CYP2C19. The format is ADME.
The test system of series [11] is Rattus norvegicus. The experiment in a line: Tlast in Wistar rat at 50 mg/kg, po administered as single dose by LC-MS/MS analysis. The format is ADME, organism-based. Also noted: dose 50 mg/kg, route oral. The conditions noted are these: in vivo.
Series [12] is described as follows: Half life in Wistar rat at 50 mg/kg, po administered as single dose by LC-MS/MS analysis. The conditions noted are these: in vivo. The format is ADME, organism-based. Also noted: dose 50 mg/kg, route oral.
Another series has as its target Cytochrome P450 3A4 (Homo sapiens, UniProt P08684). Put plainly: Inhibition of human CYP3A4. The format is ADME.
The target of a further series is Cytochrome P450 2C9 (Homo sapiens, UniProt P11712). Put plainly: Inhibition of human CYP2C9. It is filed as ADME.
Series [13] is described as follows: Tmax in Wistar rat at 50 mg/kg, po administered as single dose by LC-MS/MS analysis. It is filed as ADME, organism-based. Also noted: dose 50 mg/kg, route oral. The conditions noted are these: in vivo.
For the next series, the target named is Cytochrome P450 2D6 (Homo sapiens, UniProt P10635). Put plainly: Inhibition of human CYP2D6. The format is ADME.
In series [14] the test system is Rattus norvegicus. Put plainly: Clast in Wistar rat at 50 mg/kg, po administered as single dose by LC-MS/MS analysis. The conditions noted are these: in vivo. It is filed as ADME, organism-based. Further details: dose 50 mg/kg, route oral.
Series [15] is described as follows: AUC (0 to t) in Wistar rat at 50 mg/kg, po administered as single dose by LC-MS/MS analysis. The format is ADME, organism-based. Further details: dose 50 mg/kg, route oral. The conditions noted are these: plasma.
In a further series the target is T6, Cytochrome P450 1A2 (Homo sapiens, UniProt P05177).
T6 sequence (P05177 whole entry): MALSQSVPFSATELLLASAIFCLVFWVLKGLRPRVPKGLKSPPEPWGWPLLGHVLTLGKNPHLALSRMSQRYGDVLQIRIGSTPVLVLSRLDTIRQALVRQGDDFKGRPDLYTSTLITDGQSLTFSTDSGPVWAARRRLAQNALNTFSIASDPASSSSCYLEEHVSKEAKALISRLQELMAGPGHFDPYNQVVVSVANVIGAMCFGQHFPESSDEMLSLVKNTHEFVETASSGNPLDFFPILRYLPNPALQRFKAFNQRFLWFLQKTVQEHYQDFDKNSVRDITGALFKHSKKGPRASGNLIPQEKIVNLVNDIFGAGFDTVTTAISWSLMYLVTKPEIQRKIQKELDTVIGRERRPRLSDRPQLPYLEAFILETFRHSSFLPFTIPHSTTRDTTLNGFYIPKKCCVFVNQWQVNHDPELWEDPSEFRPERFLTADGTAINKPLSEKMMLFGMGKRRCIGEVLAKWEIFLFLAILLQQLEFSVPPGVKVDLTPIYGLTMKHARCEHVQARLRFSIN
The experiment in a line: Inhibition of human CYP1A2. The format is ADME.

Series [16] deals with Liver microsomes. Put plainly: Intrinsic clearance in Sprague-Dawley rat liver microsomes after 60 mins by LC-MS/MS analysis. The format is ADME, Microsome. The conditions noted are these: 1 h.
A short description of series [17]: Half life in Sprague-Dawley rat liver microsomes by LC-MS/MS analysis. The format is ADME, Microsome.
A short description of series [18]: Cmax in Wistar rat at 50 mg/kg, po administered as single dose by LC-MS/MS analysis. Also noted: dose 50 mg/kg, route oral. The conditions noted are these: in vivo. It is filed as ADME, organism-based.
In series [19] the target is T7, 17-beta-hydroxysteroid dehydrogenase type 2 (Homo sapiens, UniProt P37059).
T7 sequence (P37059 whole entry): T2 sequence (whole entry)
The experiment in a line: Displacement of [3H]E2 from human placental 17beta-HSD2 after 10 mins by fluid scintillation counting.

Estrogen receptor beta (Homo sapiens), sequence (Q92731 whole entry): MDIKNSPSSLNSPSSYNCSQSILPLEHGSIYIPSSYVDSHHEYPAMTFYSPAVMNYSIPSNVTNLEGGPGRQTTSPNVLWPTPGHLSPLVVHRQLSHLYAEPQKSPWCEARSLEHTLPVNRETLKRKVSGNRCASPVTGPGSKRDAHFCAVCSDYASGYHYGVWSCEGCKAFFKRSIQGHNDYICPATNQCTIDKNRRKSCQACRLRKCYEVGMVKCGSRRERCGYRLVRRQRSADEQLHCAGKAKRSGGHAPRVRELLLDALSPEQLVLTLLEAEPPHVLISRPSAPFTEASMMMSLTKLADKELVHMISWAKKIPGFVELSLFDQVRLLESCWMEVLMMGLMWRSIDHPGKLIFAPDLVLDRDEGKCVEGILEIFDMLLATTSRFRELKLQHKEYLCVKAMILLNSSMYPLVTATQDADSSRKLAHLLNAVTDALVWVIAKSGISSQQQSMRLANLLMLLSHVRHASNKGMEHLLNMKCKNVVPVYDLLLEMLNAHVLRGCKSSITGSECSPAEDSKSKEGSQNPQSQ
Cytochrome P450 2C19, sequence (P33261 whole entry): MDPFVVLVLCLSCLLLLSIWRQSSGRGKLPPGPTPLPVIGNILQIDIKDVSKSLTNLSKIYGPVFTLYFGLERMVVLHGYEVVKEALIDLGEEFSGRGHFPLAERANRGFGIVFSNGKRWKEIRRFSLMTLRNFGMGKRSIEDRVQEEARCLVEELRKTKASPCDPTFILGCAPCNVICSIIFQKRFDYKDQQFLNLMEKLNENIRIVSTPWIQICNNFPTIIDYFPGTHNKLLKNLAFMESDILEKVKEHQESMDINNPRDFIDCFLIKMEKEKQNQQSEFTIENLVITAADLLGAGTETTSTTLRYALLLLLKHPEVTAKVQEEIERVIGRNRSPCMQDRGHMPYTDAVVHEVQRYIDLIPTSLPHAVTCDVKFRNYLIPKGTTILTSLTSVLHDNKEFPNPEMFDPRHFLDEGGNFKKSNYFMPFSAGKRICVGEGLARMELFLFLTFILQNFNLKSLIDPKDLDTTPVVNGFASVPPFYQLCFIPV
Cytochrome P450 2C9, sequence (P11712 whole entry): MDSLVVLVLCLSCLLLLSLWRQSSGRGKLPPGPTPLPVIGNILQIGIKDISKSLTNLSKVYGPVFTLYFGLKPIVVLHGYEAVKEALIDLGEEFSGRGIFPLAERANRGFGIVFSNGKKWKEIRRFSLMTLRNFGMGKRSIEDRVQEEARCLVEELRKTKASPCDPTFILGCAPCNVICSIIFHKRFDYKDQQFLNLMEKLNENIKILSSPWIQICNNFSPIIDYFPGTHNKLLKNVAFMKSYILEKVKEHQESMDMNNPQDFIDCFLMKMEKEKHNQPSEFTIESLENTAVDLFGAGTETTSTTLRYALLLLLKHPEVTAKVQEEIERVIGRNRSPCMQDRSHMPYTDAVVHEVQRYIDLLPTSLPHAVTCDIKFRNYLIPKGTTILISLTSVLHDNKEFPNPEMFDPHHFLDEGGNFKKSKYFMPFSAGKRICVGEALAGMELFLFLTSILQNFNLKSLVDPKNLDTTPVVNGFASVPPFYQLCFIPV
Cytochrome P450 2D6, sequence (P10635 whole entry): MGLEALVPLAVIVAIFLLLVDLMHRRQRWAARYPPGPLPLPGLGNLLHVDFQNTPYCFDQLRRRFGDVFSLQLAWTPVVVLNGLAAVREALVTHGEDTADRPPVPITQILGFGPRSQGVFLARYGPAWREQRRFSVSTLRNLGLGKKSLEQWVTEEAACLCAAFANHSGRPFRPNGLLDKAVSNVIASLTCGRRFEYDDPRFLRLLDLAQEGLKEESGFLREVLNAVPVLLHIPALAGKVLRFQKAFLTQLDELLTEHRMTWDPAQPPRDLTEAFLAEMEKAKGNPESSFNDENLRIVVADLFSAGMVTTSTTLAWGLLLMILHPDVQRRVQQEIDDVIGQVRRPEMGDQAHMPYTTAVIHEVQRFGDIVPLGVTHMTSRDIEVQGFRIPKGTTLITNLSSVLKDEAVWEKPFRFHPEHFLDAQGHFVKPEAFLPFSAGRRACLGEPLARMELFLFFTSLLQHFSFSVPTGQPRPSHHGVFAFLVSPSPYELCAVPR
Cytochrome P450 3A4, sequence (P08684 whole entry): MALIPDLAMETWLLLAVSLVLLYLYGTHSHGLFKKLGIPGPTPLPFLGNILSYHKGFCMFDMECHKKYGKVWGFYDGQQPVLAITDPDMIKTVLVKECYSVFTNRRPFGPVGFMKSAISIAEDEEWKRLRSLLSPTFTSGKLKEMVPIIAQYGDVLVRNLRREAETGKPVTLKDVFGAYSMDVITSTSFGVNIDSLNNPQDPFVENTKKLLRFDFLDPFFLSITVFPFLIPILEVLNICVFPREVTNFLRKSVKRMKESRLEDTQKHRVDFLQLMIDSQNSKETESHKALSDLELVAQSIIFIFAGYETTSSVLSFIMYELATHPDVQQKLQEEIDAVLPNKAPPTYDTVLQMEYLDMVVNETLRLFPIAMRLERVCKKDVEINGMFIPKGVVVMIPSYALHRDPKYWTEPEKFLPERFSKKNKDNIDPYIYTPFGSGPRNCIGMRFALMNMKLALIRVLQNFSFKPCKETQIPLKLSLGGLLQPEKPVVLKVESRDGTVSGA

Take `CS(=O)(=O)Nc1cccc(-c2c(O)ccc3cc(-c4cccc(O)c4)ccc23)c1`: the IC50 is 0.015 µM in series [1] and 0.071 µM in [5]. Moreover, the Ratio IC50 in the series filed under Homo sapiens came out at 27. Moreover, the inhibition in series [2] was 31%; in series [4] it was 71%; in [7], 88%; in series [8] it was 91%. In addition, the RBA in series [3] was 0.01%; in series [6], less than 0.01%. In series [9], the Papp at 3 h came to 190 nm/s. Further, the Stability result in the series on Liver microsomes [10] is reported as “Stable”.
For the molecule `Nc1cccc(-c2c(O)ccc3cc(-c4cccc(O)c4)ccc23)c1`, the IC50 came out at 10.4 µM at Cytochrome P450 2B6; 0.053 µM in series [1]; 0.68 µM on Cytochrome P450 2C19; 1.07 µM against Cytochrome P450 3A4; 1.25 µM against Cytochrome P450 2C9; 40 µM against Cytochrome P450 2D6. Further, the midpoint of inhibition at Cytochrome P450 1A2, the IC50, lay at 10.5 µM. In addition, in the series with Rattus norvegicus [11], the tz came to 8 h. The half-life in series [12] is 1.6 h; in series [17], 0.833 h. For the same molecule, the Tmax in series [13] came to 2 h. Besides, the inhibition in series [2] was less than 10%; in [4], 39%; in series [7] it was 74%; in [8], 87%. In addition, the figures for the RBA in [3] and in [6] were 0.01% and less than 0.01%, respectively. In the series on Rattus norvegicus [14], this molecule had a Cz of 14 ng/mL. The AUC(0-t) in [15] was 0.337 µg·h/mL. This molecule also displayed a CL in the series on Liver microsomes [16] of 93 µL/min. For the same molecule, the Papp at 3 h in [9] amounted to 160 nm/s. For the same molecule, in series [18], the Cmax is 0.044 µg/mL.
Consider `Oc1cccc(-c2ccc3c(-c4cccnc4)c(O)ccc3c2)c1`, for which the IC50 was determined as 0.026 µM in series [1], 0.165 µM in [5], 0.01 µM on Cytochrome P450 1A2 and 1.16 µM in series [19]. In the series with Rattus norvegicus [11], this molecule displayed a tz of 8 h. Besides, the values for the half-life in series [12] and in series [17] were 1.5 h and 0.233 h, respectively. The Tmax in series [13] is 2 h. In the series listed under Homo sapiens, the Ratio IC50 is 45. The inhibition in series [2] amounted to 66%; in series [4], 90%; in series [7], 87%; in [8], 92%. The RBA in [3] and in series [6] was 0.01% in each case. The Cz in the series with Rattus norvegicus [14] was 18 ng/mL. Moreover, the AUC(0-t) in [15] came to 0.203 µg·h/mL. Further, the CL with Liver microsomes [16] was found to be 340 µL/min. For the same molecule, the Papp at 3 h in [9] was found to be 140 nm/s. The same molecule gave a Cmax in series [18] of 0.016 µg/mL.
